Measured values reported in US20250041312A1, “METHODS OF ADMINISTERING A MODULATOR OF HEMOGLOBIN” (Global Blood Therapeutics, Inc., priority 2021, published 2025).
Where two headings read alike, the source gives them in different places.

Assay: SAD study in healthy volunteers: PK in plasma, whole blood, red blood cells
Assay type: in vivo, human
Conditions: human; for half-life: read-out: t1/2 (converted); for Tmax: median
Description: To evaluate the safety and tolerability of single ascending doses of Compound I, 48 healthy volunteers (42 in the fasted state and 6 in the fed state) aged 18 to 55 years old were administered single ascending doses (50 mg to 2200 mg) of Compound I, while 16 healthy volunteers (14 in the fasted state and 2 in the fed state) aged 18 to 55 years old were administered placebo in a double blind, randomized, sequential manner.
Whole blood pharmacokinetic (PK) parameters, using actual sample collection times, and hemoglobin occupancy after single ascending dose are shown in Table 5 (containing data from both healthy volunteers and SCD subjects) and Table 6 (containing data from only healthy volunteer subjects).

O=Cc1c(O)cccc1OC[C@@H]1COCCN1C(=O)c1cccnc1CCO [Compound I, (S)-2-hydroxy-6-((4-(2-(2-hydroxyethyl)nicotinoyl)morpholin-3-yl)methoxy)benzaldehyde]
Cmax (whole blood, 2200 mg, HV single 2200 mg, mean): 390 µg/mL
AUC(0-t) (whole blood, 2200 mg, HV single 2200 mg, whole blood, mean, blood collected up to day 7, read-out: AUC0-t): 48000 µg·h/mL
Cmax (whole blood, po, 50 mg, HV single oral 50 mg (Cohort 1), geometric mean): 8 µg/mL
AUC(0-t) (whole blood, po, 50 mg, HV single oral 50 mg (Cohort 1), whole blood, geometric mean, read-out: AUClast): 6810 µg·h/mL
half-life (whole blood, po, 50 mg, HV single oral 50 mg (Cohort 1), whole blood, geometric mean): 683 h
Cmax (whole blood, po, 100 mg, HV single oral 100 mg (Cohort 2), geometric mean): 17.3 µg/mL
AUC(0-t) (whole blood, po, 100 mg, HV single oral 100 mg (Cohort 2), whole blood, geometric mean, read-out: AUClast): 14300 µg·h/mL
half-life (whole blood, po, 100 mg, HV single oral 100 mg (Cohort 2), whole blood, geometric mean): 698 h
Cmax (whole blood, po, 200 mg, HV single oral 200 mg (Cohort 3), geometric mean): 34.2 µg/mL
AUC(0-t) (whole blood, po, 200 mg, HV single oral 200 mg (Cohort 3), whole blood, geometric mean, read-out: AUClast): 28600 µg·h/mL
half-life (whole blood, po, 200 mg, HV single oral 200 mg (Cohort 3), whole blood, geometric mean): 677 h
Cmax (whole blood, po, 400 mg, HV single oral 400 mg (Cohort 5), geometric mean): 87.6 µg/mL
AUC(0-t) (whole blood, po, 400 mg, HV single oral 400 mg (Cohort 5), whole blood, geometric mean, read-out: AUClast): 62200 µg·h/mL
half-life (whole blood, po, 400 mg, HV single oral 400 mg (Cohort 5), whole blood, geometric mean): 609 h
Cmax (whole blood, po, 800 mg, HV single oral 800 mg (Cohort 6), geometric mean): 149 µg/mL
AUC(0-t) (whole blood, po, 800 mg, HV single oral 800 mg (Cohort 6), whole blood, geometric mean, read-out: AUClast): 103000 µg·h/mL
half-life (whole blood, po, 800 mg, HV single oral 800 mg (Cohort 6), whole blood, geometric mean): 625 h
Cmax (whole blood, po, 1400 mg, HV single oral 1400 mg (Cohort 7), geometric mean): 230 µg/mL
AUC(0-t) (whole blood, po, 1400 mg, HV single oral 1400 mg (Cohort 7), whole blood, geometric mean, read-out: AUClast): 192000 µg·h/mL
half-life (whole blood, po, 1400 mg, HV single oral 1400 mg (Cohort 7), whole blood, geometric mean): 656 h
Cmax (whole blood, po, 2200 mg, HV single oral 2200 mg (Cohort 8), geometric mean): 387 µg/mL
AUC(0-t) (whole blood, po, 2200 mg, HV single oral 2200 mg (Cohort 8), whole blood, geometric mean, read-out: AUClast): 264000 µg·h/mL
half-life (whole blood, po, 2200 mg, HV single oral 2200 mg (Cohort 8), whole blood, geometric mean): 590 h
Tmax (HV single 50 mg, whole blood): 24 h
Tmax (HV single 100 mg, whole blood): 24 h
Tmax (HV single 200 mg, whole blood): 8 h
Tmax (HV single 400 mg, whole blood): 8 h
Tmax (HV single 800 mg, whole blood): 16 h
Tmax (HV single 1400 mg, whole blood): 12 h
Tmax (HV single 2200 mg, whole blood): 24 h
AUC(0-inf) (HV single oral 50 mg (Cohort 1), plasma, geometric mean): 34.2 µg·h/mL
Tmax (HV single oral 50 mg (Cohort 1), plasma): 0.75 h
AUC(0-inf) (HV single oral 50 mg (Cohort 1), red blood cells (calculated conc.), geometric mean): 18100 µg·h/mL
Tmax (HV single oral 50 mg (Cohort 1), red blood cells (conc. calculated from blood, plasma, hematocrit)): 24 h
AUC(0-inf) (HV single oral 50 mg (Cohort 1), whole blood, geometric mean): 7490 µg·h/mL
Tmax (HV single oral 50 mg (Cohort 1), whole blood): 24 h
AUC(0-inf) (HV single oral 100 mg (Cohort 2), plasma, geometric mean): 74.5 µg·h/mL
Tmax (HV single oral 100 mg (Cohort 2), plasma): 1 h
AUC(0-inf) (HV single oral 100 mg (Cohort 2), red blood cells (calculated conc.), geometric mean): 38500 µg·h/mL
Tmax (HV single oral 100 mg (Cohort 2), red blood cells (calculated conc.)): 24 h
AUC(0-inf) (HV single oral 100 mg (Cohort 2), whole blood, geometric mean): 15900 µg·h/mL
Tmax (HV single oral 100 mg (Cohort 2), whole blood): 24 h
AUC(0-inf) (HV single oral 200 mg (Cohort 3), plasma, geometric mean): 152 µg·h/mL
Tmax (HV single oral 200 mg (Cohort 3), plasma): 1 h
AUC(0-inf) (HV single oral 200 mg (Cohort 3), red blood cells (calculated conc.), geometric mean): 71200 µg·h/mL
Tmax (HV single oral 200 mg (Cohort 3), red blood cells (calculated conc.)): 8 h
AUC(0-inf) (HV single oral 200 mg (Cohort 3), whole blood, geometric mean): 31600 µg·h/mL
Tmax (HV single oral 200 mg (Cohort 3), whole blood): 8 h
AUC(0-inf) (HV single oral 400 mg (Cohort 5), plasma, geometric mean): 361 µg·h/mL
Tmax (HV single oral 400 mg (Cohort 5), plasma): 1 h
AUC(0-inf) (HV single oral 400 mg (Cohort 5), red blood cells (calculated conc.), geometric mean): 163000 µg·h/mL
Tmax (HV single oral 400 mg (Cohort 5), red blood cells (calculated conc.)): 10 h
AUC(0-inf) (HV single oral 400 mg (Cohort 5), whole blood, geometric mean): 67200 µg·h/mL
Tmax (HV single oral 400 mg (Cohort 5), whole blood): 8 h
AUC(0-inf) (HV single oral 800 mg (Cohort 6), plasma, geometric mean): 623 µg·h/mL
Tmax (HV single oral 800 mg (Cohort 6), plasma): 2.5 h
AUC(0-inf) (HV single oral 800 mg (Cohort 6), red blood cells (calculated conc.), geometric mean): 266000 µg·h/mL
Tmax (HV single oral 800 mg (Cohort 6), red blood cells (calculated conc.)): 36 h
AUC(0-inf) (HV single oral 800 mg (Cohort 6), whole blood, geometric mean): 111000 µg·h/mL
Tmax (HV single oral 800 mg (Cohort 6), whole blood): 16 h
AUC(0-inf) (HV single oral 1400 mg (Cohort 7), plasma, geometric mean): 1080 µg·h/mL
Tmax (HV single oral 1400 mg (Cohort 7), plasma): 2.5 h
AUC(0-inf) (HV single oral 1400 mg (Cohort 7), red blood cells (calculated conc.), geometric mean): 499000 µg·h/mL
Tmax (HV single oral 1400 mg (Cohort 7), red blood cells (calculated conc.)): 30 h
AUC(0-inf) (HV single oral 1400 mg (Cohort 7), whole blood, geometric mean): 210000 µg·h/mL
Tmax (HV single oral 1400 mg (Cohort 7), whole blood): 12 h
AUC(0-inf) (HV single oral 2200 mg (Cohort 8), plasma, geometric mean): 1430 µg·h/mL
Tmax (HV single oral 2200 mg (Cohort 8), plasma): 3.5 h
AUC(0-inf) (HV single oral 2200 mg (Cohort 8), red blood cells (calculated conc.), geometric mean): 670000 µg·h/mL
Tmax (HV single oral 2200 mg (Cohort 8), red blood cells (calculated conc.)): 24 h
AUC(0-inf) (HV single oral 2200 mg (Cohort 8), whole blood, geometric mean): 282000 µg·h/mL
Tmax (HV single oral 2200 mg (Cohort 8), whole blood): 24 h
Tmax (healthy volunteers n=6, single 100 mg, plasma): 1 h
